Where “and” joins values, the source holds several entries; their conditions need not be identical. Equal values may be shown once. Read-outs that look alike come from different tables or passages of the source. Where a SMILES comes first, the peptide text is derived from it. [ ]: non-standard residue; d: D form.
Tests used:
S. aureus (ATCC 6538) = type: cell-based, Staphylococcus aureus
Description: (§1) Seven microorganism strains were used to preliminarily evaluate the antimicrobial activity of PSTO2 and its analogues, including Staphylococcus aureus (S. aureus) (ATCC® 6538), methicillin-resistant Staphylococcus aureus (MRSA) (NCTC® 12493), Enterococcus faecalis (E. faecalis) (NCTC® 12697), E. coli (ATCC® 8739), Klebsiella pneumonia (K. pneumonia) (ATCC® 43816), Pseudomonas aeruginosa (P. aeruginosa) (ATCC® CRM 9027), Acinetobacter baumanni (A. baumanni) (BAA® 747), and Candida albicans (C. albicans) (ATCC® 10231). In this study, the strains were cultured in Mueller–Hinton broth (MHB), nutrient broth (NB), and yeast–peptone–dextrose broth (YPD-B) correspondingly at 37 °C, with shaking at 120 rpm. Each peptide was dissolved from 128 μM to 1 μM and mixed with the bacterium at 5 × 10^5 CFU/mL. In this process, bacteria with culture medium were used as the growth control group; PBS was set up as the vehicle control group; sterile culture medium was used as the blank control group; and Norfloxacin at a concentration of 2 mg/mL and amphotericin B at a concentration of 1 mg/mL were set up as the positive control group for bacteria and fungi, respectively.
(§2) After being incubated for 24 h, a Synergy HT plate reader (Bio-Tek, Shoreline, WA, USA) was used to detect the absorbance of each well in the 96-well plate at λ = 550 nm. The concentration at which no visible turbidity could be recorded was the MIC value. Beginning from the MIC value, 10 µL of solution in each clear well was dropped on the sterile agar plates. The plate was checked the next day for colony formation, and the lowest concentration at which no colony growing was recorded as an MBC value.

MRSA (NCTC 12493) = type: cell-based, methicillin-resistant Staphylococcus aureus
Description: as §1, §2

E. coli (ATCC 8739) = type: cell-based, Escherichia coli
Description: as §1, §2

[1] = tested on: K. pneumonia (ATCC 43816); type: cell-based, Klebsiella pneumonia
Description: as §1, §2

[2] = tested on: P. aeruginosa (ATCC 9027); type: cell-based, Pseudomonas aeruginosa
Description: as §1, §2

A. baumannii (BAA 747) = type: cell-based, Acinetobacter baumanni; details: BAA 747, 24 h
Description: as §1, §2

C. albicans = type: cell-based, Candida albicans; details: 24 h
Description: as §1, §2

horse red blood cells = type: cell-based
Description: To assess the haemolytic activity of PSTO2 and its analogues, 2% fresh defibrinated horse red blood cells (TCS Biosciences Ltd., Buckingham, UK) were acquired after being washed and resuspended in sterile PBS. Each peptide was dissolved in PBS to prepare solutions with concentrations ranging from 2 µM to 1024 µM. Subsequently, 100 µL of each peptide solution was mixed with 100 µL of the red blood cell suspension. The red blood cells treated with 1% triton X-100 and sterile PBS in equivalent volumes were set up as the positive and negative control groups, respectively. Then, all the samples were incubated at 37 °C for 2 h. Thereafter, the samples were centrifuged at 900× g for 10 min. Finally, 100 µL of supernatant of each sample was transferred into a 96-well plate, and the absorbance was recorded by a Synergy HT plate reader (Bio-Tek, Shoreline, WA, USA) at a wavelength of 570. The following equation was used to calculate haemolysis activity:Haemolysis activity = (Sample absorbance − Ab)/(Ap − Ab) × 100% where Ab refers to the mean value of absorbance of the negative control (incubated with PBS only), and Ap refers to the mean absorbance value of the positive control (incubated with triton X-100).

[3] = clear wells plated on agar, no colony

How did the MBC (S. aureus (ATCC 6538); [3]) turn out when `CC[C@H](C)[C@H](NC(=O)CN)C(=O)NCC(=O)N[C@@H](C)C(=O)N[C@H](C(=O)N[C@@H](CC(C)C)C(=O)N[C@@H](CCCCN)C(=O)N[C@H](C(=O)N[C@@H](CC(C)C)C(=O)N[C@H](C(=O)N[C@H](C(=O)NCC(=O)N[C@@H](CC(C)C)C(=O)N1CCC[C@H]1C(=O)N[C@@H](C)C(=O)N[C@@H](CC(C)C)C(=O)N[C@H](C(=O)N[C@@H](CO)C(=O)N[C@@H](Cc1c[nH]c2ccccc12)C(=O)N[C@H](C(=O)N[C@@H](CCCCN)C(=O)N[C@@H](CCCNC(=N)N)C(=O)N[C@@H](CCCCN)C(=O)N[C@@H](CCCNC(=N)N)C(=O)N[C@@H](CCC(N)=O)C(=O)N[C@@H](CCC(N)=O)C(N)=O)[C@@H](C)CC)[C@@H](C)CC)[C@@H](C)O)[C@@H](C)O)C(C)C)C(C)C` [Mellitin, melittin, reference compound] was run?
Its MBC is 5.7 µg/mL and 2 µM.

What about the MBC (MRSA (NCTC 12493); [3]) of the same molecule?
The MBC was 2 µM.

What about the MBC (E. coli (ATCC 8739); [3]) of the same molecule?
Its MBC is 4 µM.

And the MIC ([1]; 5 × 10^5 CFU/mL, 24 h, absorbance 550 nm)?
The MIC was 32 µM.

And the MBC [1, 3]?
The MBC was 32 µM.

What about the MBC [2, 3] of the same molecule?
The MBC was 32 µM.

With `CC[C@H](C)[C@H](NC(=O)[C@H](C)NC(=O)[C@@H](CCCCN)NC(=O)[C@@H]1CCCN1C(=O)[C@@H](NC(=O)[C@H](CC(C)C)NC(=O)[C@H](CO)NC(=O)[C@H](CC(C)C)NC(=O)[C@@H](N)Cc1ccccc1)[C@@H](C)CC)C(=O)N[C@H](CCCCN)C(=O)N[C@@H](C)C(=O)N[C@H](C(=O)N[C@@H](CO)C(=O)N[C@@H](C)C(=O)N[C@@H](CC(C)C)C(=O)N[C@@H](C)C(=O)N[C@@H](CCCCN)C(=O)N[C@H](CCCCN)C(=O)N[C@@H](CC(C)C)C(N)=O)C(C)C` [Peptide D1] (H-FLSLIP[dK]AI[dK]AVSALAK[dK]L-NH2) as the molecule, how does the MBC (S. aureus (ATCC 6538); ATCC 6538, 24 h) read?
The MBC was over 128 µM.

And the MIC (S. aureus (ATCC 6538); ATCC 6538, 24 h)?
Its MIC is over 128 µM.

What about the MBC (MRSA (NCTC 12493); NCTC 12493, 24 h) of the same molecule?
The MBC was over 128 µM.

And the MIC (MRSA (NCTC 12493); NCTC 12493, 24 h)?
Its MIC is over 128 µM.

What about the MBC (E. coli (ATCC 8739); ATCC 8739, 24 h) of the same molecule?
Its MBC is 32 µM.

And the MIC (E. coli (ATCC 8739); ATCC 8739, 24 h)?
Its MIC is 32 µM.

And the MBC (A. baumannii (BAA 747))?
The MBC was 32 µM.

And the MIC (A. baumannii (BAA 747))?
Its MIC is 32 µM.

And the MBC ([1]; ATCC 43816, 24 h)?
Its MBC is 128 µM.

What about the MIC ([1]; ATCC 43816, 24 h) of the same molecule?
The MIC was 128 µM.

What about the MBC ([2]; ATCC 9027, 24 h) of the same molecule?
The MBC was 32 µM.

What about the MIC ([2]; ATCC 9027, 24 h) of the same molecule?
The MIC was 32 µM.

And the MBC (C. albicans)?
Its MBC is over 128 µM.

And the MIC (C. albicans)?
Its MIC is over 128 µM.

What about the HC10 (horse red blood cells) of the same molecule?
Its HC10 is “Not significant”.

What does the source list for `CC[C@H](C)[C@H](NC(=O)[C@H](C)NC(=O)[C@@H](CCCCN)NC(=O)[C@@H]1CCCN1C(=O)[C@@H](NC(=O)[C@H](CC(C)C)NC(=O)[C@H](CO)NC(=O)[C@H](CC(C)C)NC(=O)[C@@H](N)Cc1ccccc1)[C@@H](C)CC)C(=O)N[C@H](CCCCN)C(=O)N[C@@H](C)C(=O)N[C@H](C(=O)N[C@H](CCCCN)C(=O)N[C@@H](C)C(=O)N[C@@H](CC(C)C)C(=O)N[C@@H](C)C(=O)N[C@H](CCCCN)C(=O)N[C@H](CCCCN)C(=O)N[C@@H](CC(C)C)C(N)=O)C(C)C` [Peptide D2] (H-FLSLIP[dK]AI[dK]AV[dK]ALA[dK][dK]L-NH2)?
MBC (S. aureus (ATCC 6538); ATCC 6538, 24 h): >128 µM; MIC (S. aureus (ATCC 6538); ATCC 6538, 24 h): >128 µM; MBC (MRSA (NCTC 12493); NCTC 12493, 24 h): >128 µM; MIC (MRSA (NCTC 12493); NCTC 12493, 24 h): >128 µM; MBC (E. coli (ATCC 8739); ATCC 8739, 24 h): 32 µM; MIC (E. coli (ATCC 8739); ATCC 8739, 24 h): 16 µM; MBC (A. baumannii (BAA 747)): 16 µM; MIC (A. baumannii (BAA 747)): 16 µM; MBC ([1]; ATCC 43816, 24 h): 128 µM; MIC ([1]; ATCC 43816, 24 h): 128 µM; MBC ([2]; ATCC 9027, 24 h): 16 µM; MIC ([2]; ATCC 9027, 24 h): 16 µM; MBC (C. albicans): >128 µM; MIC (C. albicans): >128 µM; HC10 (horse red blood cells): Not significant

— PMC11360180, “Enhancement of Antimicrobial Function by L/D-Lysine Substitution on a Novel Broad-Spectrum Antimicrobial Peptide, Phylloseptin-TO2: A Structure-Related Activity Research Study” (Pharmaceutics, 2024)
